Source: BindingDB's records for doi:10.1074/jbc.M113.476473 (Uppsala University, 2013)
pIC50: −log10 of the molar value.

Tests used:
[1] = biological target: T1, Pantothenate kinase (Mycobacterium tuberculosis (strain ATCC 25618 / H37Rv), UniProt P9WPA7); experiment: Biochemical Assay (ATP at 50x Km)
T1 sequence (P9WPA7 whole entry): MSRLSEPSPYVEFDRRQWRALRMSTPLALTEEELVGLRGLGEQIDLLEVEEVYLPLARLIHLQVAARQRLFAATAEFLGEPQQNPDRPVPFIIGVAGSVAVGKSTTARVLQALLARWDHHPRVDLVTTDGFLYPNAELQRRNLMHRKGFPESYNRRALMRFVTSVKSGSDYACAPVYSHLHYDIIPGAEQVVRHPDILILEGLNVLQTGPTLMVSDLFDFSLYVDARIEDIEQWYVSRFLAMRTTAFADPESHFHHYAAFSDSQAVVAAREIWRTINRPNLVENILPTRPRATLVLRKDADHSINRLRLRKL
Protocol: Briefly, MtPanK activity was measured in a pyruvate kinaselactate dehydrogenase-coupled assay where the reaction rate was determined by spectrophotometric measurement of NADH consumption. A second set of IC50 measurements were performed with the ATP concentration at 50× Km, to determine the effect of cofactor competition.

[2] = biological target: T1, Pantothenate kinase; experiment: Biochemical Assay (ATP at Km)
Protocol: Briefly, MtPanK activity was measured in a pyruvate kinaselactate dehydrogenase-coupled assay where the reaction rate was determined by spectrophotometric measurement of NADH consumption. IC50 measurements were performed with a suitable concentration range of inhibitory compound, while keeping the concentration of pantothenate and ATP at 122 and 395 µM, respectively, which is their respective Km.

Compound | pIC50 [1] | pIC50 [2]
N#Cc1ccc(-c2ccc(COC(=O)O)cc2CN2CCN(c3ccccn3)CC2)cc1 [Biaryl 2a] | 6.89 | 6.92
N#Cc1ccc(-c2ccc(OCC(N)=O)cc2CN2CCN(c3ccccn3)CC2)cc1 [Biaryl 2b] | – | 6.26
CC(NC(=O)c1ccccc1C(F)(F)F)c1nnc(SCCOc2ccc(F)cc2)n1C (stereo not given) [Triazole 1a] | 5.26 | 7.05
CC(NC(=O)c1ccccc1Cl)c1nnc(SCCOc2ccc(F)cc2)n1C (stereo not given) [Triazole 1b] | < 4.90 | 5.95
CC(NC(=O)c1ccccc1C(F)(F)F)c1nnc(SCc2ccc(F)cc2)n1C (stereo not given) [Triazole 1c] | 4.98 | 6.82
Cc1ccccc1OCCSc1nnc(C(C)NC(=O)c2ccccc2C(F)(F)F)n1C (stereo not given) [Triazole 1d] | 5.55 | 6.85
CC(NC(=O)c1ccccc1C(F)(F)F)c1nnc(SCCOc2ccc(F)cc2)n1Cc1ccc(F)cc1 (stereo not given) [Triazole 1e] | 6.16 | 7.30
CC(NC(=O)c1c(F)cccc1F)c1nnc(SCCOc2ccc(F)cc2)n1C (stereo not given) [Triazole 1f] | 4.85 | 5.96
